Results from US20260176265A1 (Cancer Research Technology Limited, priority 2022, published 2026).

How the values were obtained:
[1] = molecular target: T1, Phospho-EGFR (Tyr1068) in A431 cells (Homo sapiens, UniProt P00533); assay: HTRF pEGFR/total EGFR assay in A431 cells (EGF stimulated); format: cell-based; settings: compound 2.5 hours then 100 ng/ml EGF 30 mins, ratio pEGFR/total EGFR
T1 construct: endogenous in cells; host or cells: A431
Description: Cells were plated at 20,000 cells per well in 96 well plates and placed at 37° C. 5% CO2. Once adhered (after 24h) cells were treated with compounds dissolved in DMSO at a final concentration of 0.1% DMSO in media. Compounds were diluted in media then added to cells for 2.5 hours in duplicate, 100 ng/ml EGF (ThermoFisher, PHG0311 was is added to all compound treated cells as well as a control for 30 mins. Compound and media were removed from the cells, then 50ul of HTRF lysis bufferwas added (lysis bufferwas diluted from 4× stock to 1× in DI water, with 1% blocking agent also added). Cells were lysed on a plate shaker (2000 rpm) for 30 minutes at room temperature. pEGFR expression was monitored using the Cisbio Phospho-EGFR (Tyr1068) cellular kit (64EG1PEH). Total EGFR expression was monitored using the Cisbio Total EGFR cellular kit (64NG1PEH) as per manufacturer's instructions. Fluorescence emission was read at two different wavelengths (665 nm and 620 nm) on a PheraStar. Results were calculated as ratio of pEGFR/total EGFR and then percentage of OuM control.

[2] = molecular target: CtermHisTag-mEGFR Wild type (Homo sapiens, UniProt P00533); assay: TR-FRET probe displacement assay, EGFR wild type; format: binding; settings: EGFR wild type 1.25 nM, probe 100 nM, 30 mins room temperature
Sequence of CtermHisTag-mEGFR Wild type (P00533 25-1210): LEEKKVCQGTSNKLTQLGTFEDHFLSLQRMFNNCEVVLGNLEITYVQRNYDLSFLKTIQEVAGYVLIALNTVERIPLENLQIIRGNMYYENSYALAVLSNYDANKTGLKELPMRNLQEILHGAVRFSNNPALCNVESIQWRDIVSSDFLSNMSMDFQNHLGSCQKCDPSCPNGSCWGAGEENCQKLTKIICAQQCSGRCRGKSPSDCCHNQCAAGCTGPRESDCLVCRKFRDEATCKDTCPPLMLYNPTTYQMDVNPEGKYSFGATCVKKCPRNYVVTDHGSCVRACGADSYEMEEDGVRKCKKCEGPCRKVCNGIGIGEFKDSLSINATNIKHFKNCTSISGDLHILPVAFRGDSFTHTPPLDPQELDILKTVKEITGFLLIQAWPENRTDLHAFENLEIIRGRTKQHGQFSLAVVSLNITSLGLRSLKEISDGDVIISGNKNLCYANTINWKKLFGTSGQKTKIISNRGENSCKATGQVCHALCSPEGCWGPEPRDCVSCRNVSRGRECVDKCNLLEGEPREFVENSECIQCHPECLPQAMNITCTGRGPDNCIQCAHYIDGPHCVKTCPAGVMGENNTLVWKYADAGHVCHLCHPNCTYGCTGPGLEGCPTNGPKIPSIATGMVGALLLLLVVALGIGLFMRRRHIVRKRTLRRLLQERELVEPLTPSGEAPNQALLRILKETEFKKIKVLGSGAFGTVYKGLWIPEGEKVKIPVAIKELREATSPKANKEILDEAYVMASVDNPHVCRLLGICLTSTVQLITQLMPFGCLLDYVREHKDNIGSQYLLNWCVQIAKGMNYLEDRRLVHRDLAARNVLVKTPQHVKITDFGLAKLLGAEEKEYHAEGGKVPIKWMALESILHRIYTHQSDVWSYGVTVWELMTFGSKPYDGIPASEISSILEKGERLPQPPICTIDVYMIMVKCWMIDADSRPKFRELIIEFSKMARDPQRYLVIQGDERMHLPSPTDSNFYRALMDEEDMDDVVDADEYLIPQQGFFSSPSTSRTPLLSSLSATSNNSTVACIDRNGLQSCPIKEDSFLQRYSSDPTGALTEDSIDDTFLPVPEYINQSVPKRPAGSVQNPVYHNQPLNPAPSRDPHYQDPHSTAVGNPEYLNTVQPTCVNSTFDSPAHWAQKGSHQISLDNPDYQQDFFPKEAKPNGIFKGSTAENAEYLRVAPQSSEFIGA
Description: (§1) Compounds (dissolved to 100 mM in DMSO) were dispensed into black low volume 384 well assay plates (Corning) over a final concentration range of 100000, 30000, 10000, 3000, 1000, 300, 100, 30, 10, and 3 nM using an Echo 550 (Labcyte). Positive control compound and DMSO as a negative control were dispensed into the first and last well, respectively. […]. Plates were read using a PheraStar FS (BMG Labtech) at Ex337 nm Ex490/520 nm. The data were analysed using Graphpad Prism/Dotmatics Studies Software. Assays conducted in technical replicate and repeated as a biological duplicate.

[3] = molecular target: CtermHisTag-mEGFR Triple Mutant - C797S, L858R, T790M (Homo sapiens, UniProt P00533, C797S/L858R/T790M); assay: TR-FRET probe displacement assay, EGFR triple mutant; format: binding; settings: T790M 1.25 nM, probe 100 nM, 30 mins room temperature
Sequence of CtermHisTag-mEGFR Triple Mutant - C797S, L858R, T790M (P00533 25-1210 T790M/C797S/L858R): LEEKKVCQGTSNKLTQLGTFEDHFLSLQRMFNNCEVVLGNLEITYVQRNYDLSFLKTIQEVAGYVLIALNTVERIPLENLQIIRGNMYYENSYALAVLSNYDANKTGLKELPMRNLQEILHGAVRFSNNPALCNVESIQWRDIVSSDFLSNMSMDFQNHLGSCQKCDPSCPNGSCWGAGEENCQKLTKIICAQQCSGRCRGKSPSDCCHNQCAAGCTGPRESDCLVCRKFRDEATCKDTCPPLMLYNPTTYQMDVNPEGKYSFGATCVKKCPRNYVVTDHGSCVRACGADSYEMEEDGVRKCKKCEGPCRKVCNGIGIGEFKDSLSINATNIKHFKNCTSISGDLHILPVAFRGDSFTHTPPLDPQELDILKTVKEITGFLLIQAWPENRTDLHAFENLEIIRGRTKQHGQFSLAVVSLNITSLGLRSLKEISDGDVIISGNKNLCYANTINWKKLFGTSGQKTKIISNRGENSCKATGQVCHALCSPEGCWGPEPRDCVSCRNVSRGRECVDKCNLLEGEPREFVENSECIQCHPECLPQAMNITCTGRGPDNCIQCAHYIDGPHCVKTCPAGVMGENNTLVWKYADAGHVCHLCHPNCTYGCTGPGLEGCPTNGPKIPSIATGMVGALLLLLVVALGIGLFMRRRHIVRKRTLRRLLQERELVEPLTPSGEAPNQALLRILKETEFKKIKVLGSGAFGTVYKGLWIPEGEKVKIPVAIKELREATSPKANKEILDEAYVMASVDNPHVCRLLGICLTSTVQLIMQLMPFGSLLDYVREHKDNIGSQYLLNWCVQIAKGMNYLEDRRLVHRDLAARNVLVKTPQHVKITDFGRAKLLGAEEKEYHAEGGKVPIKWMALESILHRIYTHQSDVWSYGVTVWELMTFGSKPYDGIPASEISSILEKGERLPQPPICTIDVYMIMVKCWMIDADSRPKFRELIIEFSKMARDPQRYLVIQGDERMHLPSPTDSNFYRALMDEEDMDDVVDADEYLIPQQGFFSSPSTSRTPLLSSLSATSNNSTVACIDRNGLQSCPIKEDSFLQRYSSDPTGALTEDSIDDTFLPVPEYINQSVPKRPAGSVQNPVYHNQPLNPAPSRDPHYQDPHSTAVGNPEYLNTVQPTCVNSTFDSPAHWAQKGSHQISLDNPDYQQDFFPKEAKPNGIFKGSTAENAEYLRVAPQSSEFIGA
Description: as §1

[4] = molecular target: T2, Phospho-EGFR (Tyr1068) in H1975 C797S cells (Homo sapiens, UniProt P00533, C797S/L858R/T790M); assay: HTRF pEGFR/total EGFR assay in H1975 C797S cells; format: cell-based; settings: H1975 C797S cells (CRISPR), compound 3 hours, ratio pEGFR/total EGFR
T2 construct: endogenous in cells; host or cells: H1975 C797S (CRISPR-edited in house from ATCC CRL-5908)
T2 sequence (P00533 25-1210 T790M/C797S/L858R): as above
Description: H1975 C797S cells (ATCC CRL-5908) were genetically engineered by CRISPR editing of EGFR C797S in house and validated by NGS. Cells were plated at 20,000 cells per well in 96 well plates and placed at 37° C. 5% CO2. Once adhered (after 24h) cells were treated with compounds dissolved in DMSO at a final concentration of 0.1% DMSO in media. Compounds were diluted in media then added to cells for 3 hours in duplicate. Compound and media were removed from the cells, then 50 ul of HTRF lysis buffer was added (lysis buffer was diluted from 4× stock to 1× in DI water, with 1% blocking agent also added). Cells were lysed on a plate shaker (2000 rpm) for 30 minutes at room temperature. pEGFR expression was monitored using the Cisbio Phospho-EGFR (Tyr1068) cellular kit (64EG1PEH). Total EGFR expression was monitored using the Cisbio Total EGFR cellular kit (64NG1PEH) as per manufacturer's instructions. Fluorescence emission was read at two different wavelengths (665 nm and 620 nm) on a PheraStar. Results were calculated as ratio of pEGFR/total EGFR and then percentage of 0 uM control.

[5] = molecular target: T3, Phospho-EGFR (Tyr1068) in H1975 cells (Homo sapiens, UniProt P00533, L858R/T790M); assay: HTRF pEGFR/total EGFR assay in H1975 cells; format: cell-based; settings: compound 3 hours, ratio pEGFR/total EGFR
T3 construct: host or cells: H1975
T3 sequence (P00533 25-1210 T790M/L858R): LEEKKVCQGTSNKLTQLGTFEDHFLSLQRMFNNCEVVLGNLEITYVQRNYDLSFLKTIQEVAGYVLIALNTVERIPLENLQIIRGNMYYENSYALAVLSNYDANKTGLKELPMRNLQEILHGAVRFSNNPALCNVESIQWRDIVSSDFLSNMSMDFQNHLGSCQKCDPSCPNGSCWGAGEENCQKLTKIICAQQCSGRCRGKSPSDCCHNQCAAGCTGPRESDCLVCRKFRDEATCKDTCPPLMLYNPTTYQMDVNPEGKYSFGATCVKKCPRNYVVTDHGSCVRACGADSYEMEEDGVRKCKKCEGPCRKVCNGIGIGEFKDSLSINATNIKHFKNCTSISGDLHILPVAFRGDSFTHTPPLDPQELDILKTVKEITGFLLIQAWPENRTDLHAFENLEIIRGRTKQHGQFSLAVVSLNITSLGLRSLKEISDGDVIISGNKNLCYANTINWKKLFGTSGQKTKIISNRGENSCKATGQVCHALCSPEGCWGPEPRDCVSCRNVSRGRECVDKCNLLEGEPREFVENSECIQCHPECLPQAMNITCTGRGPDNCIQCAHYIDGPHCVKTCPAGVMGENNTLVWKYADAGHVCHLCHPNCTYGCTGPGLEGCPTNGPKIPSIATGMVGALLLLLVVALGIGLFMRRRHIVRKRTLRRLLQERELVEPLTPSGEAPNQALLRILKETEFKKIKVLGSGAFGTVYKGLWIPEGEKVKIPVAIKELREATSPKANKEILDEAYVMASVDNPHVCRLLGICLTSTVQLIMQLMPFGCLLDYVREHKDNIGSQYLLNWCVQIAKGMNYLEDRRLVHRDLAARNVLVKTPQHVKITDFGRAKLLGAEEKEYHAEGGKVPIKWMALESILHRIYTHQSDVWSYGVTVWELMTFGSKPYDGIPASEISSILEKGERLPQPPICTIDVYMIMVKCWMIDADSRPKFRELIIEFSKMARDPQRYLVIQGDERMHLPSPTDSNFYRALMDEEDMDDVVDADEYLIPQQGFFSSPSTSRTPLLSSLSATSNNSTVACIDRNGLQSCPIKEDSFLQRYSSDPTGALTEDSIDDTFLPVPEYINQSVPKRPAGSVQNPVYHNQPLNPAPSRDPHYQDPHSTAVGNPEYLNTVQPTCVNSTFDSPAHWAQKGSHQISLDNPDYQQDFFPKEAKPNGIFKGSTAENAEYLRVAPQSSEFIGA
Description: H1975 cells (ATCC CRL-5908) were plated at 20,000 cells per well in 96 well plates and placed at 37° C. 5% CO2. Once adhered (after 24h) cells were treated with compounds dissolved in DMSO at a final concentration of 0.1% DMSO in media. Compounds were diluted in media then added to cells for 3 hours in duplicate. Compound and media were removed from the cells, then 50ul of HTRF lysis buffer is added (lysis buffer was diluted from 4× stock to 1× in DI water, with 1% blocking agent also added). Cells were lysed on a plate shaker (2000 rpm) for 30 minutes at room temperature. pEGFR expression was monitored using the Cisbio Phospho-EGFR (Tyri068) cellular kit (64EG1 PEH). Total EGFR expression was monitored using the Cisbio Total EGFR cellular kit (64NG1 PEH) as per manufacturer's instructions. Fluorescence emission was read at two different wavelengths (665 nm and 620 nm) on a PheraStar. Results were calculated as ratio of pEGFR/total EGFR and then percentage of 0 uM control.

Row | IC50 [1] | IC50 [2] | IC50 [3] | IC50 [4] | IC50 [5] | Structure (SMILES)
1 | > 3000 nM | > 10000 nM | 100 to 1000 nM | > 3000 nM | > 3000 nM | C#Cc1cc(NC(=O)N(C)C)nc2nc(Nc3ccc(N4CCN(C)CC4)cc3)ncc12 [Example 37, 1-(5-ethynyl-2-{[4-(4-methylpiperazin-1-yl)phenyl]amino}pyrido[2,3-d]pyrimidin-7-yl)-3,3-dimethylurea]
2 | < 500 nM | < 1000 nM | < 20 nM | < 500 nM | < 500 nM | C#Cc1cc(NC(=O)NC2CCCC2)nc2nc(Nc3ccc(N4CCN(C)CC4)cc3)ncc12 [Example 38, 1-cyclopentyl-3-(5-ethynyl-2-((4-(4-methylpiperazin-1-yl)phenyl)amino)pyrido[2,3-d]pyrimidin-7-yl)urea]
3 | > 3000 nM | < 1000 nM | < 20 nM | < 500 nM | < 500 nM | C#Cc1cc(NC(=O)NCc2ccccc2)nc2nc(Nc3ccc(N4CCN(C)CC4)cc3)ncc12 [Example 39, 1-benzyl-3-(5-ethynyl-2-{[4-(4-methylpiperazin-1-yl)phenyl]amino}pyrido[2,3-d]pyrimidin-7-yl)urea]
4 | > 3000 nM | < 1000 nM | < 20 nM | < 500 nM | < 500 nM | C#Cc1cc(NC(=O)NCC2CCCC2)nc2nc(Nc3ccc(N4CCN(C)CC4)cc3)ncc12 [Example 40, 3-(cyclopentylmethyl)-1-(5-ethynyl-2-{[4-(4-methylpiperazin-1-yl)phenyl]amino}pyrido[2,3-d]pyrimidin-7-yl)urea]
5 | 1000 to 3000 nM | < 1000 nM | < 20 nM | < 500 nM | < 500 nM | C#Cc1cc(NC(=O)NC2CCC2)nc2nc(Nc3ccc(N4CCN(C)CC4)cc3)ncc12 [Example 41, 3-cyclobutyl-1-(5-ethynyl-2-{[4-(4-methylpiperazin-1-yl)phenyl]amino}pyrido[2,3-d]pyrimidin-7-yl)urea]
6 | > 3000 nM | < 1000 nM | < 20 nM | < 500 nM | < 500 nM | C#Cc1cc(NC(=O)NC2CCOC2)nc2nc(Nc3ccc(N4CCN(C)CC4)cc3)ncc12 (stereo not shown) [Example 42, 1-(5-ethynyl-2-{[4-(4-methylpiperazin-1-yl)phenyl]amino}pyrido[2,3-d]pyrimidin-7-yl)-3-(oxolan-3-yl)urea]
7 | > 3000 nM | < 1000 nM | < 20 nM | < 500 nM | < 500 nM | C#Cc1cc(NC(=O)NC2COC2)nc2nc(Nc3ccc(N4CCN(C)CC4)cc3)ncc12 [Example 43, 1-(5-ethynyl-2-{[4-(4-methylpiperazin-1-yl)phenyl]amino}pyrido[2,3-d]pyrimidin-7-yl)-3-(oxetan-3-ylI)urea]
8 | 1000 to 3000 nM | < 1000 nM | < 20 nM | < 500 nM | < 500 nM | C#Cc1cc(NC(=O)NC2CC2)nc2nc(Nc3ccc(N4CCN(C)CC4)cc3)ncc12 [Example 44, 3-cyclopropyl-1-(5-ethynyl-2-{[4-(4-methylpiperazin-1-yl)phenyl]amino}pyrido[2,3-d]pyrimidin-7-yl)urea]
9 | > 3000 nM | < 1000 nM | 20 to 100 nM | 1000 to 3000 nM | 500 to 1000 nM | C#Cc1cc(NC(=O)NCc2cnco2)nc2nc(Nc3ccc(N4CCN(C)CC4)cc3)ncc12 [Example 45, 1-(5-ethynyl-2-{[4-(4-methylpiperazin-1-yl)phenyl]amino}pyrido[2,3-d]pyrimidin-7-yl)-3-(1,3-oxazol-5-ylmethyl)urea]
10 | > 3000 nM | < 1000 nM | < 20 nM | > 3000 nM | > 3000 nM | C#Cc1cc(NC(=O)NCc2cncn2C)nc2nc(Nc3ccc(N4CCN(C)CC4)cc3)ncc12 [Example 46, 1-(5-ethynyl-2-{[4-(4-methylpiperazin-1-yl)phenyl]amino}pyrido[2,3-d]pyrimidin-7-yl)-3-[(3-methylmidazol-4-yl)methyl]urea]
11 | > 3000 nM | < 1000 nM | 20 to 100 nM | 1000 to 3000 nM | 500 to 1000 nM | C#Cc1cc(NC(=O)NCc2ccno2)nc2nc(Nc3ccc(N4CCN(C)CC4)cc3)ncc12 [Example 47, 1-(5-ethynyl-2-{[4-(4-methylpiperazin-1-yl)phenyl]amino}pyrido[2,3-d]pyrimidin-7-yl)-3-(1,2-oxazol-5-ylmethyl)urea]
12 | > 3000 nM | < 1000 nM | < 20 nM | < 500 nM | < 500 nM | C#Cc1cc(NC(=O)NCc2ccnn2C)nc2nc(Nc3ccc(N4CCN(C)CC4)cc3)ncc12 [Example 48, 1-(5-ethynyl-2-{[4-(4-methylpiperazin-1-yl)phenyl]amino}pyrido[2,3-d]pyrimidin-7-yl)-3-[(2-methylpyrazol-3-yl)methyl]urea]
13 | > 3000 nM | < 1000 nM | 20 to 100 nM | 1000 to 3000 nM | 500 to 1000 nM | C#Cc1cc(NC(=O)NCc2ccccn2)nc2nc(Nc3ccc(N4CCN(C)CC4)cc3)ncc12 [Example 49, 3-(5-ethynyl-2-{[4-(4-methylpiperazin-1-yl)phenyl]amino}pyrido[2,3-d]pyrimidin-7-yl)-1-(pyridin-2-ylmethyl)urea]
14 | > 3000 nM | < 1000 nM | 20 to 100 nM | 500 to 1000 nM | < 500 nM | C#Cc1cc(NC(=O)NCC2CCCO2)nc2nc(Nc3ccc(N4CCN(C)CC4)cc3)ncc12 (stereo not shown) [Example 50, 1-(5-ethynyl-2-{[4-(4-methylpiperazin-1-yl)phenyl]amino}pyrido[2,3-d]pyrimidin-7-yl)-3-(oxolan-2-ylmethyl)urea]
15 | > 3000 nM | < 1000 nM | < 20 nM | < 500 nM | < 500 nM | C#Cc1cc(NC(=O)NCC2CCOC2)nc2nc(Nc3ccc(N4CCN(C)CC4)cc3)ncc12 (stereo not shown) [Example 51, 1-(5-ethynyl-2-{[4-(4-methylpiperazin-1-yl)phenyl]amino}pyrido[2,3-d]pyrimidin-7-yl)-3-(oxolan-3-ylmethyl)urea]
16 | > 3000 nM | 1000 to 10000 nM | 20 to 100 nM | > 3000 nM | > 3000 nM | C#Cc1cc(NC(=O)N[C@@H]2CCN(C(C)=O)C2)nc2nc(Nc3ccc(N4CCN(C)CC4)cc3)ncc12 [Example 52]
17 | > 3000 nM | < 1000 nM | < 20 nM | > 3000 nM | 1000 to 3000 nM | C#Cc1cc(NC(=O)N[C@H]2CCN(C(C)=O)C2)nc2nc(Nc3ccc(N4CCN(C)CC4)cc3)ncc12 [Example 53, 3-[(3S)-1-acetylpyrrolidin-3-yl]-1-(5-ethynyl-2-{[4-(4-methylpiperazin-1-yl)phenyl]amino}pyrido[2,3-d]pyrimidin-7-yl)urea]
